Experiments:
Format in all cases: cell-based
[1] = biological target: T1, zebrafish β1 homopentameric GABAA receptor (Danio rerio, UniProt F1QPW7); assay: two-electrode voltage clamp, Xenopus oocytes, GABA-evoked current; conditions: agonist at 10 mM only; -50 mV, pH 7.5
T1 construct: gene gabrb1; homopentamer
T1 sequence (F1QPW7 29-484): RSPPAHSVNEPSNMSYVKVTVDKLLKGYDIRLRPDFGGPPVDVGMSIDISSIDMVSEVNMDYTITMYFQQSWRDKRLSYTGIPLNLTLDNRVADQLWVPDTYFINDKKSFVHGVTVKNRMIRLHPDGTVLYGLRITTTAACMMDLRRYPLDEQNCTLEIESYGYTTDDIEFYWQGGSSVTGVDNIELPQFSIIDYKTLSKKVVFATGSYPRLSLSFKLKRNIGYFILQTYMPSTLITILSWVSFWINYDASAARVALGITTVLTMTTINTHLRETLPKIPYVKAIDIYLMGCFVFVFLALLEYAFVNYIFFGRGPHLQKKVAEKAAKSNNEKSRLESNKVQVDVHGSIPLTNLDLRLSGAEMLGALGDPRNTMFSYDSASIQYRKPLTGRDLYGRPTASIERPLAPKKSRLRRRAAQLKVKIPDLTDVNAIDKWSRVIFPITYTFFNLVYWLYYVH

[2] = biological target: T2, zebrafish β4 homopentameric GABAA receptor (Danio rerio, UniProt A0A2R8QJR5); assay: as above; conditions: agonist at 10 mM only; -50 mV, pH 7.5
T2 construct: gene gabrb4; homopentamer
T2 sequence (A0A2R8QJR5 26-482): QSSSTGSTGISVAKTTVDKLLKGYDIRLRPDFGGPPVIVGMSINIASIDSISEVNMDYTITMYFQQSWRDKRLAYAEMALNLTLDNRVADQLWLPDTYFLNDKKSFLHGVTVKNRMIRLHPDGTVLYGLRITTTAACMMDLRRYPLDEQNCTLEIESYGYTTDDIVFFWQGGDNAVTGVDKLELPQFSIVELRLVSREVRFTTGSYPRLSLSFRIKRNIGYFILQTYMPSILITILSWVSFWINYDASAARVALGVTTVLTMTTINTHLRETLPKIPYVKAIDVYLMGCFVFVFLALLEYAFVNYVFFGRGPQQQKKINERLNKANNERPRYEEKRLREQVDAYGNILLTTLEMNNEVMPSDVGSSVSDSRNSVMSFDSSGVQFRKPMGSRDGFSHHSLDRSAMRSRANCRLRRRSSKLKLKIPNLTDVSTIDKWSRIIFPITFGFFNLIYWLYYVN

[3] = biological target: T3, zebrafish β3 homopentameric GABAA receptor (Danio rerio, UniProt A0A0R4ILP2); assay: as above; conditions: agonist at 10 mM only; -50 mV, pH 7.5
T3 construct: gene gabrb3; homopentamer
T3 sequence (A0A0R4ILP2 26-498): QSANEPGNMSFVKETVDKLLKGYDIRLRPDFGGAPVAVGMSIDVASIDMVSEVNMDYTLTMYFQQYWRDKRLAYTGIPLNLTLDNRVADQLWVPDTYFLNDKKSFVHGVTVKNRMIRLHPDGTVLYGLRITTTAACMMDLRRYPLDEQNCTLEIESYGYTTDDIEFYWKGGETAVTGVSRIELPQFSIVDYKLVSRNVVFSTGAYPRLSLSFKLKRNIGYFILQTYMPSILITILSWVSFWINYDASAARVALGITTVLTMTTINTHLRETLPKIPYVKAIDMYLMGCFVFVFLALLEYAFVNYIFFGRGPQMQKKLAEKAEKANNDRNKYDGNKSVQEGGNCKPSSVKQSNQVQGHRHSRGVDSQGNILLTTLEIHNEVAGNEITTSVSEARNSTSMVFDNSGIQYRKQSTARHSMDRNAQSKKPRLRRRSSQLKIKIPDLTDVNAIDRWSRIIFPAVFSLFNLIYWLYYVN

[4] = biological target: T3, zebrafish β3 homopentameric GABAA receptor; assay: two-electrode voltage clamp, Xenopus oocytes, etomidate-evoked current

Compound	two-electrode voltage clamp, Xenopus oocytes, GABA-evoked current [1]	two-electrode voltage clamp, Xenopus oocytes, GABA-evoked current [2]	two-electrode voltage clamp, Xenopus oocytes, GABA-evoked current [3]	EC50 [4] [µM]
NCCCC(=O)O [GABA]	either single β subunit yielded small currents	either single β subunit yielded small currents	either single β subunit yielded small currents	
CCOC(=O)c1cncn1[C@H](C)c1ccccc1 [etomidate]				30.3 ± 5.7

Reference: paper PMC7973766, “Characterization of zebrafish GABAA receptor subunits” (Scientific Reports, 2021)
